This experiment deals with A549-NF-κB-SEAP reporter cells. Briefly: Inhibition of NF-κB-induced inflammation: […] NINA Instant Assay, TNF-α stimulated SEAP reporter. The class given is cell-based. To be noted: % inhibition classes. The text has this:
For the determination of anti-inflammatory activity of the compounds the […]® NINA Instant Assay from Cell Culture Service GmBH was used. This assay is based on […] recombinant A549-NF-κB-SEAP reporter cells preceded in 96-well flat bottom plates. As the transfected reportergen for SEAP (secreted embryonic alkaline phosphatase) is under transcriptional control of a NF-κB-responsive element, the expression of this reporter is activated upon stimulation with TNF-α. SEAP secretion into the culture supernatant can be detected by the chemiluminescent substrate CSPD®. Test compounds that inhibit the NF-κB activation show reduced SEAP activity and reduced luminescent readout.
Following 18 h of reactivation at 37° C., 5% CO2 and 90% relative humidity, the cells were incubated with 0.01 up to 100 μM of test compound for 4.5 h before stimulation with 2 ng/ml TNF-α. After stimulation with TNF-α for 22 h endogenous phosphatases were inactivated and CSPD® substrate was supplied for 40 min. SEAP activity then was quantified by measuring luminescence as relative light units (RLU) using a Tecan Ultra reader. Each data point was recorded in quadruplicates and EC50 values were calculated via fitting function and the Microsoft Excel Solver.
`Nc1nc(NC(=O)c2csc(C3CCN(C(=O)c4ccccc4OC(F)(F)F)CC3)n2)n[nH]1` [compound 89]: the “Biological activity (inhibition in the NF-κB inflammation assay)” value is listed as “+ (“+” stands for 50-80% inhibition)”.
The value for `N#CNC(=N)NC(=O)c1csc(C2CCN(C(=O)c3ccccc3OC(F)(F)F)CC2)n1` [compound 90] was “+ (“+” stands for 50-80% inhibition)”.
For `N=C(NC(=O)c1csc(C2CCN(C(=O)C(c3ccccc3)c3ccccc3)CC2)n1)Nc1nc2ccccc2[nH]1` [compound 93] the value was “+ (“+” stands for 50-80% inhibition)”; for `N=C(NC(=O)c1csc(C2CCNCC2)n1)Nc1nc2ccccc2[nH]1` [compound 94], “+ (“+” stands for 50-80% inhibition)”.
For `CC(C)(C)OC(=O)N1CCC(c2nc(C(=O)NC(=N)Nc3nc4ccccc4[nH]3)cs2)CC1` [compound 95] the value was “+++ (“+++” stands for 90-100% inhibition)”.
Take `O=C(NCC1CCN(c2nc(C(=O)N3CCN(c4cccc(C(F)(F)F)c4)CC3)cs2)CC1)c1ccc(C(F)(F)F)c(F)c1` [compound 99]: the “Biological activity (inhibition in the NF-κB inflammation assay)” value is given as “+ (“+” stands for 50-80% inhibition)”.
`O=C(CCC1CCCC1)NCC1CCN(c2nc(C(=O)N3CCN(c4cccc(C(F)(F)F)c4)CC3)cs2)CC1` [compound 100]: the “Biological activity (inhibition in the NF-κB inflammation assay)” value is listed as “+ (“+” stands for 50-80% inhibition)”.
For `O=C(NCC1CCN(c2nc(C(=O)N3CCN(c4cccc(C(F)(F)F)c4)CC3)cs2)CC1)c1ccccc1OC(F)(F)F` [compound 101] the value was “+ (“+” stands for 50-80% inhibition)”.
With `N#Cc1ccc(C(=O)NCC2CCN(c3nc(C(=O)N4CCN(c5cccc(C(F)(F)F)c5)CC4)cs3)CC2)cc1` [compound 102], the “Biological activity (inhibition in the NF-κB inflammation assay)” value is listed as “+ (“+” stands for 50-80% inhibition)”.
The value for `Cc1sc(C2CCN(C(=O)c3ccccc3OC(F)(F)F)CC2)nc1CC(=O)N1CCN(c2cccc(C(F)(F)F)c2)CC1` [compound 103] was “++ (“++” means 80-90%)”; that for `O=C(Nc1nc2ccccc2[nH]1)c1csc(C2CCN(C(=O)c3ccccc3OC(F)(F)F)CC2)n1` [compound 105] was “+ (“+” stands for 50-80% inhibition)”; that for `Cc1cc2nc(NC(=O)Cc3nc(C4CCN(C(=O)c5ccccc5OC(F)(F)F)CC4)sc3C)[nH]c2cc1C` [compound 106] was “+ (“+” stands for 50-80% inhibition)”.
For `O=C(c1csc(C2CCN(Cc3ccncc3)CC2)n1)N1CCN(c2cccc(C(F)(F)F)c2)CC1` [compound 107] the value was “+ (“+” stands for 50-80% inhibition)”; for `O=C(c1csc(C2CCN(Cc3ccccc3OC(F)(F)F)CC2)n1)N1CCN(c2cccc(C(F)(F)F)c2)CC1` [compound 109], “+ (“+” stands for 50-80% inhibition)”.
The value for `O=C(c1csc(C2CCN(C(=O)c3ccccc3OC(F)(F)F)CC2)n1)N(Cc1ccc(Cl)cc1)Cc1ccc(Cl)cc1` [compound 110] was “+ (“+” stands for 50-80% inhibition)”; that for `O=C(c1csc(C2CCN(C(=O)c3ccccc3OC(F)(F)F)CC2)n1)N1CCC(n2nnc3ccccc32)CC1` [compound 111] was “+ (“+” stands for 50-80% inhibition)”.
`N#Cc1ccc(N2CCC(c3nc(C(=O)N4CCN(c5cccc(C(F)(F)F)c5)CC4)cs3)CC2)cc1` [compound 112]: the “Biological activity (inhibition in the NF-κB inflammation assay)” value is reported as “+ (“+” stands for 50-80% inhibition)”.
On to `O=C(O)N1CCC(c2nc(C(=O)N3CCN(c4cccc(C(F)(F)F)c4)CC3)cs2)CC1` [compound 113], for which the “Biological activity (inhibition in the NF-κB inflammation assay)” value is recorded as “+ (“+” stands for 50-80% inhibition)”.
The value for `O=C(c1csc(C2CCN(Cc3cccc(OC(F)(F)F)c3)CC2)n1)N1CCN(c2cccc(C(F)(F)F)c2)CC1` [compound 115] was “++ (“++” means 80-90%)”; that for `COc1ccc(OC)c(N2CCC(c3nc(C(=O)N4CCN(c5cccc(C(F)(F)F)c5)CC4)cs3)CC2)c1` [compound 116] was “+ (“+” stands for 50-80% inhibition)”; that for `CS(=O)(=O)c1ccc(N2CCC(c3nc(C(=O)N4CCN(c5cccc(C(F)(F)F)c5)CC4)cs3)CC2)cc1` [compound 117] was “+ (“+” stands for 50-80% inhibition)”.
For `O=C(c1csc(C2CCN(c3cc(C(F)(F)F)ccn3)CC2)n1)N1CCN(c2cccc(C(F)(F)F)c2)CC1` [compound 118] the value was “+ (“+” stands for 50-80% inhibition)”; for `O=C(c1csc(C2CCN(c3ccccc3)CC2)n1)N1CCN(c2cccc(C(F)(F)F)c2)CC1` [compound 119], “+ (“+” stands for 50-80% inhibition)”.
The value for `COc1nc(OC)nc(N2CCN(C(=O)c3csc(C4CCN(Cc5ccccc5)CC4)n3)CC2)n1` [compound 120] was “+ (“+” stands for 50-80% inhibition)”; that for `COc1nc(OC)nc(N2CCN(C(=O)c3csc(C4CCN(Cc5ccc(Br)cc5)CC4)n3)CC2)n1` [compound 121] was “+ (“+” stands for 50-80% inhibition)”.
`O=C(c1csc(C2CCN(c3ccccn3)CC2)n1)N1CCN(c2cccc(C(F)(F)F)c2)CC1` [compound 123]: the “Biological activity (inhibition in the NF-κB inflammation assay)” value is “++ (“++” means 80-90%)”.
The value for `CSc1nccc(N2CCN(C(=O)c3csc(C4CCN(C(=O)c5ccccc5OC(F)(F)F)CC4)n3)CC2)n1` [compound 124] was “+ (“+” stands for 50-80% inhibition)”; that for `CC(C)(C)OC(=O)N1CCC(C(=O)N2CCN(c3cccc(C(F)(F)F)c3)CC2)CC1` [compound 125] was “+ (“+” stands for 50-80% inhibition)”.
Regarding `COc1nc(OC)nc(N2CCN(C(=O)c3csc(C4CCN(C(=O)Cc5ccc(F)cc5)CC4)n3)CC2)n1` [compound 126], the “Biological activity (inhibition in the NF-κB inflammation assay)” value was “+ (“+” stands for 50-80% inhibition)”.
For `COc1nc(OC)nc(N2CCN(C(=O)c3csc(C4CCN(C(=O)c5ccccc5OC(F)(F)F)CC4)n3)CC2)n1` [compound 127] the value was “+ (“+” stands for 50-80% inhibition)”.
For `Cc1sc(C2CCN(C(=O)c3ccccc3OC(F)(F)F)CC2)nc1CC(=O)N1CCN(c2cccc(Cl)c2)CC1` [compound 128] the value was “+++ (“+++” stands for 90-100% inhibition)”; for `O=C(c1csc(C2CCN(C(=O)c3ccccc3OC(F)(F)F)CC2)n1)N1CCN(c2ncnc3nc[nH]c23)CC1` [compound 129], “+ (“+” stands for 50-80% inhibition)”.
The value for `COc1cc(N2CCN(C(=O)c3csc(C4CCN(C(=O)c5ccccc5OC(F)(F)F)CC4)n3)CC2)nc(OC)n1` [compound 130] was “+ (“+” stands for 50-80% inhibition)”; that for `Cc1cc2nc(NC(=O)c3csc(C4CCN(C(=O)Cc5ccc(F)cc5)CC4)n3)[nH]c2cc1C` [compound 131] was “+ (“+” stands for 50-80% inhibition)”.
